Source: paper PMC3914206

Tests used:
panel of 442 kinases [1] = biological target: T1, panel of 442 kinases (Homo sapiens, UniProt Q07002); format: binding; details: Compound Concentration 10 µM
T1 construct: purchased KINOMEscan
From the text: (§1) We assessed the selectivity of members of this scaffold using the KINOMEscan methodology across a near comprehensive panel of 442 kinases [[18,27]].

panel of 442 kinases [2] = biological target: T2, panel of 442 kinases (Homo sapiens, UniProt Q16620); format: binding; details: kinase TRKB; compound concentration 10 µM
T2 construct: purchased KINOMEscan
From the text: as §1

T2 sequence (Q16620 32-822): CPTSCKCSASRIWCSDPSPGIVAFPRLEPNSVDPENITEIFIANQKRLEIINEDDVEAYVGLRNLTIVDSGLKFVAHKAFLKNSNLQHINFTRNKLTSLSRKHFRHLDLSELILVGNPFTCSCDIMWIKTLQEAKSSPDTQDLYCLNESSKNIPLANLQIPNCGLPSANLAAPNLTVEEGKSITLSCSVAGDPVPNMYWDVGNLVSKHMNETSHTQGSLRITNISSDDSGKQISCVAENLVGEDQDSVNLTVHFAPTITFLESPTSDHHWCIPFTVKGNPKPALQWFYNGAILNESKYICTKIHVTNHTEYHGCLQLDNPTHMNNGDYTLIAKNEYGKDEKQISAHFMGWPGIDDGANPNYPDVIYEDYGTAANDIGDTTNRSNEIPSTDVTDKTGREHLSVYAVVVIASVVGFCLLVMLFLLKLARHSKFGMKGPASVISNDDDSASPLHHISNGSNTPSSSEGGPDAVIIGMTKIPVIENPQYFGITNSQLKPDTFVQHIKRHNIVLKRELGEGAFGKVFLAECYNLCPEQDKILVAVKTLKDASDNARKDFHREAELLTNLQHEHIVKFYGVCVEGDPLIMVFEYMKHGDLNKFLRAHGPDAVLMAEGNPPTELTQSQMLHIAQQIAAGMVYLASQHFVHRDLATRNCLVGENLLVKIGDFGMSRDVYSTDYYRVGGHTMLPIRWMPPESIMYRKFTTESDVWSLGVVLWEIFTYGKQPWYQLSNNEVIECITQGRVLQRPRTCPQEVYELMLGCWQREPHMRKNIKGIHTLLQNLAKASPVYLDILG
T1 sequence (Q07002 whole entry): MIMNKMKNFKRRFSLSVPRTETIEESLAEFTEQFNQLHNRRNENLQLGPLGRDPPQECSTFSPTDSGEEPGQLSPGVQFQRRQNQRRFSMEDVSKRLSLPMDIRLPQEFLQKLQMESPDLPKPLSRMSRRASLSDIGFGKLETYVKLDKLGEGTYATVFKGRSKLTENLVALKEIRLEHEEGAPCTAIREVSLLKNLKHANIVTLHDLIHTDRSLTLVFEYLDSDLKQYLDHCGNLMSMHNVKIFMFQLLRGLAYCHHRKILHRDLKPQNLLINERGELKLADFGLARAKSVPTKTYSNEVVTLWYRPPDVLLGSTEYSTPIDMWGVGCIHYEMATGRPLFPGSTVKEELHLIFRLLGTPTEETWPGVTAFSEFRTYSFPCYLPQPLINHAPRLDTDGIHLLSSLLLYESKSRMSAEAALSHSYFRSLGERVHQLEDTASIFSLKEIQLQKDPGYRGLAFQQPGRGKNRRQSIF

SMILES | KINOMEscan: PCTK3 (panel of 442 kinases [1]) | % Ctrl, TRKB (panel of 442 kinases [2])
COc1cc(C(=O)N2CCC(N3CCN(C)CC3)CC2)ccc1Nc1ncc2c(n1)N(C1CCCC1)c1ccccc1C(=O)N2C [Compound 25, 11-cyclopentyl-2-((2-methoxy-4-(4-(4-methylpiperazin-1-yl)piperidine-1-carbonyl)phenyl)amino)-5-methyl-5H-benzo[e]pyrimido[5,4-b][1,4]diazepin-6(11H)-one] | 100 | 83 % Ctrl
COc1cc(C(=O)N2CCC(N3CCN(C)CC3)CC2)ccc1Nc1ncc2c(n1)N(C)c1ccccc1C(=O)N2C [15 (LRRK2-IN-1)] | 100 | 100 % Ctrl
CCOc1cc(C(=O)N2CCC(N3CCN(C)CC3)CC2)ccc1Nc1ncc2c(n1)N(C1CCCC1)c1ccccc1C(=O)N2C [Compound 26] | 100 | 100 % Ctrl
